# Where a SMILES comes first, the peptide text is derived from it.
# Experiments:
# [1] = Radiochemical purity by HPLC on storage at room temperature; format: physicochemical; conditions: three days at room temperature
# Procedure: The labeling efficiency was analyzed by instant thin layer chromatography (iTLC) and was typically >98%. For iTLC analysis, 1 μL of diluted labeling solution was applied to a strip of iTLC-SA chromatography paper (Agilent P/N A120B12, 114×2.5 mm) and developed in 0.1M citrate buffer (8 cm solvent migration) to assess free ^177Lu (Rf >0.5) and [^177Lu]-6555 (Rf ˜0). The iTLC strips were analyzed using an Eckert & Ziegler AR-2000 Radio-TLC Imaging Scanner. The radiochemical purity was analyzed by high performance chromatography (HPLC) and was typically >90%. Briefly, the product was analyzed using a Phenomenex Luna 3.0 μm C18(2), 100A, 150 mm×4.6 mm column. Eluent A: 50 mM ammonium acetate in water, eluent B: acetonitrile. Gradient: 2% B from 0-5 min; 2% to 26% B from 5-20 min; 26% to 98% B from 20-25 min; 98% to 2% B from 25-26 min; 2% B from 26-30 min. Flow rate: 1.0 mL/min, Radio-HPLC detector: NaI (Eckert & Zeigler FC-1000), UV: 215 nm. The radiochemical purity remained >90% for three days at room temperature.
# The above depicted radiopharmaceutical [^177Lu]-6952 can be prepared as described in Example 19 using the radiochemical precursor 6952 (Example 14 above). The labeling efficiency was analyzed by instant thin layer chromatography (iTLC) and was typically >98%. […] The iTLC strips were analyzed using an Eckert & Ziegler AR-2000 Radio-TLC Imaging Scanner. The radiochemical purity was analyzed by high performance chromatography (HPLC) and was typically >90%. Briefly, the product was analyzed using a Phenomenex Luna 3.0 m C18(2), 100A, 150 mm×4.6 mm column. […]
# The labeling efficiency was analyzed by instant thin layer chromatography (iTLC) and was typically >95%. […] The iTLC strips were analyzed using an Eckert & Ziegler AR-2000 Radio-TLC Imaging Scanner. The radiochemical purity was analyzed by high performance chromatography (HPLC) and was typically >95%. Briefly, the product was analyzed using a Phenomenex Luna 3.0 m C18(2), 100Å, 150 mm×4.6 mm column. […]
# The labeling efficiency was analyzed by instant thin layer chromatography (iTLC) and was typically >95%. […]
# [2] = system: HEK-mFAP tumor xenografts; test: In vivo biodistribution study of [177Lu]-6522, gamma counting; conditions: for Mean (% ID/g): i.v.
# [3] = system: HEK-mFAP tumor xenografts; test: Efficacy and survival study, single injection; format: in vivo, mouse; conditions: single IV injection
# Procedure: The aim of the study was to assess the therapeutic efficacy of a single injection of ^177Lu-PNT2004 ([^177Lu]-6522) by evaluating tumor growth delay and median survival. ^177Lu-PNT2004 ([^177Lu]-6522) was provided in 3 concentrations, ready for injection (80 μL/mouse), and the injected dose was determined using a well counter (Capintec calibration) #430x10.
# A total of 30 HEK-mFAP tumor-bearing mice were used for the study.
# Mouse health checks were performed throughout the study on a weekly basis including body weight measurements. Tumor growth was monitored weekly with caliper measurements (tumor volume=length×width^2×0.5). Study endpoints include tumor size >2 cm in any dimension, tumor ulceration, mouse is moribund, and >15% body weight lost from the last measurement. Mice were housed 5 to a cage with ad libitum access to food and water in 20° C. ambient temperature, 40%-50% humidity, and 12-hour light/12-hour dark cycle.
# The mice were randomized into 5 groups, n=6 mice per group. The treatment compositions (1 through 5 above) were injected IV through the tail vein using a catheter (mounted with a 30 Ga needle). Injected doses were determined using a well counter (Capintec calibration). Tumor growth was monitored weekly with caliper measurements, and the mice were followed for survival.
smiles,measurement,setting,value
C[C@@H](NC(=O)c1ccc(CNC(=O)CN2CCN3CCN4CCN(CC2)CC(=O)[O][Lu]([O]C(=O)C3)[O]C(=O)C4)cc1)C(=O)N1CCC[C@H]1B(O)O [[^177Lu]-6555],radiochemical purity remained,[1],> 90%
CC(C)[C@H](NC(=O)CNC(=O)CNC(=O)CN1CCN2CCN3CCN(CC1)CC(=O)[O][Lu]([O]C(=O)C2)[O]C(=O)C3)C(=O)N[C@H](C)C(=O)N1CCC[C@H]1B(O)O [[^177Lu]-6522] (HELM PEPTIDE1{[O=C1CN2CCN3CCN(CC(=O)[*:2])CCN(CC2)CC(=O)[O][Lu]([O]1)[O]C(=O)C3].G.G.V.[dA].[OB(O)[C@@H]1CCCN1[*:1]]}$$$$V2.0),Mean (% ID/g),"[2]; Blood, 4 h p.i.",0.3063 % ID/g
same,Mean (% ID/g),"[2]; Blood, 24 h p.i.",0.0085 % ID/g
same,Mean (% ID/g),"[2]; Blood, 48 h p.i.",0.0029 % ID/g
same,Mean (% ID/g),"[2]; Blood, 168 h p.i.",0.0015 % ID/g
same,Mean (% ID/g),"[2]; Bone, 4 h p.i.",1.8037 % ID/g
same,Mean (% ID/g),"[2]; Bone, 24 h p.i.",0.2658 % ID/g
same,Mean (% ID/g),"[2]; Bone, 48 h p.i.",0.4106 % ID/g
same,Mean (% ID/g),"[2]; Bone, 168 h p.i.",0.3959 % ID/g
same,Mean (% ID/g),"[2]; Brain, 4 h p.i.",0.0281 % ID/g
same,Mean (% ID/g),"[2]; Brain, 24 h p.i.",0.0036 % ID/g
same,Mean (% ID/g),"[2]; Brain, 48 h p.i.",0.0033 % ID/g
same,Mean (% ID/g),"[2]; Brain, 168 h p.i.",0.0020 % ID/g
same,Mean (% ID/g),"[2]; Heart, 4 h p.i.",0.1528 % ID/g
same,Mean (% ID/g),"[2]; Heart, 24 h p.i.",0.0332 % ID/g
same,Mean (% ID/g),"[2]; Heart, 48 h p.i.",0.0311 % ID/g
same,Mean (% ID/g),"[2]; Heart, 168 h p.i.",0.0256 % ID/g
same,Mean (% ID/g),"[2]; Kidneys, 4 h p.i.",2.3525 % ID/g
same,Mean (% ID/g),"[2]; Kidneys, 4 h p.i., listed as Compound #2",2.35±0.51 % ID/g
same,Mean (% ID/g),"[2]; Kidneys, 24 h p.i.",0.9585 % ID/g
same,Mean (% ID/g),"[2]; Kidneys, 48 h p.i.",0.5318 % ID/g
same,Mean (% ID/g),"[2]; Kidneys, 168 h (day 7) p.i.",0.1670 % ID/g
same,Mean (% ID/g),"[2]; Kidneys, 168 h (day 7) p.i., listed as Compound #2",0.17±0.02 % ID/g
same,Mean (% ID/g),"[2]; Liver, 4 h p.i.",0.3774 % ID/g
same,Mean (% ID/g),"[2]; Liver, 24 h p.i.",0.1585 % ID/g
same,Mean (% ID/g),"[2]; Liver, 48 h p.i.",0.1237 % ID/g
same,Mean (% ID/g),"[2]; Liver, 168 h p.i.",0.0725 % ID/g
same,Mean (% ID/g),"[2]; Lung, 4 h p.i.",0.3331 % ID/g
same,Mean (% ID/g),"[2]; Lung, 24 h p.i.",0.0306 % ID/g
same,Mean (% ID/g),"[2]; Lung, 48 h p.i.",0.0312 % ID/g
same,Mean (% ID/g),"[2]; Lung, 168 h p.i.",0.0257 % ID/g
same,Mean (% ID/g),"[2]; Muscle, 4 h p.i.",0.4649 % ID/g
same,Mean (% ID/g),"[2]; Muscle, 24 h p.i.",0.0315 % ID/g
same,Mean (% ID/g),"[2]; Muscle, 48 h p.i.",0.0518 % ID/g
same,Mean (% ID/g),"[2]; Muscle, 168 h p.i.",0.0604 % ID/g
same,Mean (% ID/g),"[2]; Pancreas, 4 h p.i.",0.2167 % ID/g
same,Mean (% ID/g),"[2]; Pancreas, 24 h p.i.",0.0347 % ID/g
same,Mean (% ID/g),"[2]; Pancreas, 48 h p.i.",0.0275 % ID/g
same,Mean (% ID/g),"[2]; Pancreas, 168 h p.i.",0.0197 % ID/g
same,Mean (% ID/g),"[2]; Skin, 4 h p.i.",0.9769 % ID/g
same,Mean (% ID/g),"[2]; Skin, 24 h p.i.",0.1158 % ID/g
same,Mean (% ID/g),"[2]; Skin, 48 h p.i.",0.0906 % ID/g
same,Mean (% ID/g),"[2]; Skin, 168 h p.i.",0.0837 % ID/g
same,Mean (% ID/g),"[2]; Small intestine, 4 h p.i.",0.2091 % ID/g
same,Mean (% ID/g),"[2]; Small intestine, 24 h p.i.",0.0580 % ID/g
same,Mean (% ID/g),"[2]; Small intestine, 48 h p.i.",0.0499 % ID/g
same,Mean (% ID/g),"[2]; Small intestine, 168 h p.i.",0.0277 % ID/g
same,Mean (% ID/g),"[2]; Spleen, 4 h p.i.",0.2587 % ID/g
same,Mean (% ID/g),"[2]; Spleen, 24 h p.i.",0.1418 % ID/g
same,Mean (% ID/g),"[2]; Spleen, 48 h p.i.",0.1340 % ID/g
same,Mean (% ID/g),"[2]; Spleen, 168 h p.i.",0.1437 % ID/g
same,Mean (% ID/g),"[2]; Stomach, 4 h p.i.",0.1706 % ID/g
same,Mean (% ID/g),"[2]; Stomach, 24 h p.i.",0.0528 % ID/g
same,Mean (% ID/g),"[2]; Stomach, 48 h p.i.",0.0331 % ID/g
same,Mean (% ID/g),"[2]; Stomach, 168 h p.i.",0.0210 % ID/g
same,Mean (% ID/g),"[2]; Tumor, 4 h p.i.",33.0435 % ID/g
same,Mean (% ID/g),"[2]; Tumor, 4 h p.i., listed as Compound #2",33.04±5.29 % ID/g
same,Mean (% ID/g),"[2]; Tumor, 24 h p.i.",12.9944 % ID/g
same,Mean (% ID/g),"[2]; Tumor, 48 h p.i.",7.6749 % ID/g
same,Mean (% ID/g),"[2]; Tumor, 168 h p.i.",3.9910 % ID/g
same,localization in tumor and normal tissue uptake,[2]; up to 168 h p.i.,high localization in tumor xenografts and low normal tissue uptake
same,survival benefit,[3]; 15 MBq,did not translate in a survival benefit
same,tumor growth delay,[3]; 15 MBq,tumor growth delay was observed
same,survival benefit,[3]; 30 MBq,did not translate in a survival benefit
same,tumor growth delay,[3]; 30 MBq,tumor growth delay was observed
same,survival benefit compared to the vehicle or precursor group,[3]; 60 MBq,statically significant survival benefit

# — patent US11707539B2, “FAP-targeted radiopharmaceuticals and imaging agents, and uses related thereto” (Trustees of Tufts College, priority 2020, dated 2023)
